Source: patent US11365199B2, “Pyrazole compounds as modulators of FSHR and uses thereof” (Merck Patent GmbH, priority 2013, dated 2022)
Structures can show the parent of a compound that is named as a salt.

Target: T1, FSHR (Homo sapiens, UniProt P23945)
T1 construct: expressed in transfected cells; host or cells: CHO (Cho-FSHR-LUC-1-1-43)
T1 sequence (P23945 18-695): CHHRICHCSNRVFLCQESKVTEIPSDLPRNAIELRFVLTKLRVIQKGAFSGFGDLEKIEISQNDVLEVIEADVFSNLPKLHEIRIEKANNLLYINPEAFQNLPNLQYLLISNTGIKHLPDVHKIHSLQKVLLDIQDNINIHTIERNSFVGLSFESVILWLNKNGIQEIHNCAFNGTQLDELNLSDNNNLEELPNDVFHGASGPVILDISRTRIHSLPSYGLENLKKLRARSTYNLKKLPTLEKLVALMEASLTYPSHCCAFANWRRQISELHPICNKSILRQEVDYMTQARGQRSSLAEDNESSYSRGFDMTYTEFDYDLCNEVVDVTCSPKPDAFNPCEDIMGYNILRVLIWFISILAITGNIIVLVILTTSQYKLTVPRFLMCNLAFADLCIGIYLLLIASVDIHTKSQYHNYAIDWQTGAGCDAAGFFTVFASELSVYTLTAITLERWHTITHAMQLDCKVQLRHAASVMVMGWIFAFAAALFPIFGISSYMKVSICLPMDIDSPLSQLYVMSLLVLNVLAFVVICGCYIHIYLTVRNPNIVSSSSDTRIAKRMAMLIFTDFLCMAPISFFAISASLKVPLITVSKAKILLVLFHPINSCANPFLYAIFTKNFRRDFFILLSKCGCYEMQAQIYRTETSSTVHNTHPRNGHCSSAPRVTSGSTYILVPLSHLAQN
Assay: EC50 of cyclic AMP production in CHO FSHR cells + EC20 FSH (Assay A)
Assay type: cell-based
Details: CHO FSHR cells + EC20 FSH, cAMP HTRF; read-out: Assay A: EC50 of cyclic AMP production
Outline: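 Cho-FSHR-LUC cells were exposed to compound dilution series with EC20 FSH ([…]) and 200 μM IBMX for 1 h at 37° C. cAMP was read by HTRF (665/620 nm ratio). Effects are percent of the maximal FSH standard response.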

Row | EC50 [µM] | SMILES
1 | 0.1 to 1 | COc1cc2c(cc1C1=CCCN(C)C1)-c1c(c(C(=O)N(C)C(C)(C)C)nn1-c1ccsc1)CO2 [Compound 134, 7-Methoxy-8-(1-methyl-1,2,5,6-tetrahydro-pyridin-3-yl)-1-thiophen-3-yl-1,4-dihydro-chromeno[4,3-c]pyrazole-3-carboxylic acid tert-butyl-methyl-amide]
2 | < 0.1 | COc1cc2c(cc1-c1ccn(C(C)C)n1)-c1c(c(C(=O)N3CCOCC3(C)C)nn1-c1ccsc1)CO2 [Compound 195, (3,3-Dimethyl-morpholin-4-yl)-[8-(1-isopropyl-1H-pyrazol-3-yl)-7-methoxy-1-thiophen-3-yl-1,4-dihydro-chromeno[4,3-c]pyrazol-3-yl]-methanone]
3 | < 0.1 | COc1cc2c(cc1-c1cncn1C)-c1c(c(C(=O)N(C)C(C)(C)C)nn1-c1ccsc1)CO2 [Compound 130, 7-Methoxy-8-(3-methyl-3H-imidazol-4-yl)-1-thiophen-3-yl-1,4-dihydro-chromeno[4,3-c]pyrazole-3-carboxylic acid tert-butyl-methyl-amide]
4 | < 0.1 | COc1cc2c(cc1-c1cnn(C)c1C)-c1c(c(C(=O)N3CCOCC3(C)C)nn1-c1ccsc1)CO2 [Compound 124, (3,3-Dimethyl-morpholin-4-yl)-[8-(1,5-dimethyl-1H-pyrazol-4-yl)-7-methoxy-1-thiophen-3-yl-1,4-dihydro-chromeno[4,3-c]pyrazol-3-yl]-methanone]
5 | < 0.1 | COc1cc2c(cc1-c1cn(C)cn1)-c1c(c(C(=O)N(C)C(C)(C)C)nn1-c1ccsc1)CO2 [Compound 129, 7-Methoxy-8-(1-methyl-1H-imidazol-4-yl)-1-thiophen-3-yl-1,4-dihydro-chromeno[4,3-c]pyrazole-3-carboxylic acid tert-butyl-methyl-amide]
6 | 0.1 to 1 | COc1cc2c(cc1S(=O)(=O)C1CC1)-c1c(c(C(=O)N3CCOCC3(C)C)nn1-c1ccsc1)CO2 [Compound 106, (8-Cyclopropanesulfonyl-7-methoxy-1-thiophen-3-yl-1,4-dihydro-chromeno[4,3-c]pyrazol-3-yl)-(3,3-dimethyl-morpholin-4-yl)-methanone]
7 | 1 to 5 | COc1cc2c(cc1S(=O)(=O)C(C)C)-c1c(c(C(=O)N3CCOCC3(C)C)nn1-c1ccsc1)CO2 [Compound 112, (3,3-Dimethyl-morpholin-4-yl)-[7-methoxy-8-(propane-2-sulfonyl)-1-thiophen-3-yl-1,4-dihydro-chromeno[4,3-c]pyrazol-3-yl]-methanone]
8 | 0.1 to 1 | COc1cc2c(cc1-c1ccn(C)n1)-c1c(c(C(=O)N(C)CC3(C)COC3)nn1-c1ccsc1)CO2 [Compound 102, 7-Methoxy-8-(1-methyl-1H-pyrazol-3-yl)-1-thiophen-3-yl-1,4-dihydro-chromeno[4,3-c]pyrazole-3-carboxylic acid methyl-(3-methyl-oxetan-3-ylmethyl)-amide]

Second part, the molecule before the results:

Row | SMILES | EC50 [µM]
9 | [2H]C([2H])([2H])N(CCNC(C)=O)C(=O)c1nn(-c2ccsc2)c2c1COc1cc(OC)c(C=C(C)C)cc1-2 [Compound 87] | 0.1 to 1
10 | COc1cc2c(cc1C=C(C)C)-c1c(c(C(=O)N(C)CCCN(C)C(C)=O)nn1-c1ccsc1)CO2 [Compound 32] | 0.1 to 1
11 | COc1cc2c(cc1C=C(C)C)-c1c(c(C(=O)N3CCC(C(=O)O)CC3)nn1-c1ccsc1)CO2 [Compound 16, 1-{7-Methoxy-8-(2-methyl-propenyl)-1-thiophen-3-yl-1,4-dihydro-chromeno[4,3-c]pyrazole-3-carbonyl]-piperidine-4-carboxylic acid] | > 5
12 | COc1cc2c(cc1C=C(C)C)-c1c(c(C(=O)N3CCC(O)C3)nn1-c1ccsc1)CO2 (stereo not shown) [Compound 47, (3-Hydroxy-pyrrolidin-1-yl)-[7-methoxy-8-(2-methyl-propenyl)-1-thiophen-3-yl-1,4-dihydro-chromeno[4,3-c]pyrazol-3-yl]-methanone] | 1 to 5
13 | COc1cc2c(cc1C=C(C)C)-c1c(c(C(=O)N3CCCC3(C)CO)nn1-c1ccsc1)CO2 (stereo not shown) [Compound 48, (2-Hydroxymethyl-2-methyl-pyrrolidin-1-yl)-[7-methoxy-8-(2-methyl-propenyl)-1-thiophen-3-yl-1,4-dihydro-chromeno[4,3-c]pyrazol-3-yl]-methanone] | < 0.1
14 | COc1cc2c(cc1C=C(C)C)-c1c(c(C(=O)N3CCCC(NC(=O)C4CCC4)CC3)nn1-c1ccsc1)CO2 (stereo not shown) [Compound 37, Cyclobutanecarboxylic acid {1-[7-methoxy-8-(2-methyl-propenyl)-1-thiophen-3-yl-1,4-dihydro-chromeno[4,3-c]pyrazole-3-carbonyl]-azepan-4-yl}-amide] | 1 to 5
15 | [2H]C([2H])([2H])N(CCCN(C(=O)c1nn(-c2ccsc2)c2c1COc1cc(OC)c(CC(C)C)cc1-2)C([2H])([2H])[2H])C(C)=O [Compound 84] | > 5
16 | COc1cc2c(cc1-c1ccc(F)s1)-c1c(c(C(=O)N(C)C(C)(C)C)nn1-c1ccsc1)CO2 [Compound 54, 8-(5-Fluoro-thiophen-2-yl)-7-methoxy-1-thiophen-3-yl-1,4-dihydro-chromeno[4,3-c]pyrazole-3-carboxylic acid tert-butyl-methyl-amide] | 0.1 to 1
17 | COc1cc2c(cc1C=C(C)C)-c1c(c(C(=O)NCCCc3nnn[nH]3)nn1-c1ccsc1)CO2 [Compound 11, 7-Methoxy-8-(2-methyl-propenyl)-1-thiophen-3-yl-1,4-dihydro-chromeno[4,3-c]pyrazole-3-carboxylic acid [3-(1H-tetrazol-5-yl)-propyl]-amide; trifluoro-acetic acid salt] | 1 to 5
18 | CNC(=O)C1CCCN(C(=O)c2nn(-c3ccsc3)c3c2COc2cc(OC)c(C=C(C)C)cc2-3)CC1 (stereo not shown) [Compound 42, 1-[7-Methoxy-8-(2-methyl-propenyl)-1-thiophen-3-yl-1,4-dihydro-chromeno[4,3-c]pyrazole-3-carbonyl]-azepane-4-carboxylic Acid Methylamide] | 0.1 to 1
19 | [2H]C([2H])([2H])OCC1(C)CCCN1C(=O)c1nn(-c2ccsc2)c2c1COc1cc(OC)c(C=C(C)C)cc1-2 (stereo not shown) [Compound 51] | < 0.1
